Assay results from patent US20150272955A1, “Triazolo[4,5-D]Pyrimidine Compounds For Treatment Of Abdominal Aortic Aneurysms” (AstraZeneca AB, priority 2007, published 2015).
“Also recorded” adds a separate entry of the source.

Columns and labels:
[1] = test system: experimental aortic aneurysms (mural thrombus and aneurysmal wall); assay: AAA model: histological and immunohistochemical analysis of aneurysm; type: in vivo, rat
From the text: (§1) Experimental aortic aneurysms were induced by implanting a segment of sodium dodecyl sulfate-decellularized guinea-pig aorta (xenogenic matrix) in rat aortas (Allaire E. et al. (1994), J Vasc Surg 19:446-456). This AAA model is characterized by immuno-inflammatory injury of the xenogeneic extracellular matrix (Allaire E et al. (1997), Surgery 122:73-81; Allaire E et al. (1996), Transplantation 62:794-803). Briefly, 46 male Lewis rats (250 g) and 46 guinea-pigs (280 g) (Iffa Credo, Lyon, France) were housed according to the principles of Laboratory Animal Care formulated by the European Union. Animals were anaesthetized by intraperitoneal injection of pentobarbital (5 mg/100 g body weight). Guinea-pig infrarenal aortas (1.5 cm) were sampled and decellularized by sodium dodecyl sulfate treatment to obtain tubes of intact extracellular matrix, which were orthotopically transplanted into the aorta of Lewis rats with 10/0 nylon interrupted sutures (xenograft) (Allaire et al., 1997; Allaire et al., 1996). The initial diameter of the graft was measured in situ, immediately after unclamping, under a binocular microscope. After 24 h, rats were randomly assigned to two equal groups, treated with Compound (A) (10 mg/kg body weight twice daily by oral administration) or with the diluent of Compound (A) (1% carboxymethylcellulose/0.1% Tween-80 in water) for 10 days (D10, n=9 for each group) or 6 weeks (D42, n=14 for each group). At sacrifice, rats were deeply anesthetized, the graft diameter was measured again, and the aorta was dissected out and fixed in 4% paraformaldehyde. Aortic samples were embedded in paraffin and cut at 5 μm.
Sections were stained with picro Sirius red to visualize collagen and fibrin and with orcein to visualize elastin. Immunohistochemistry was performed using anti-human α-actin (dilution 1:500, Dako, Trappes, France), anti-CD68 (macrophages, dilution 1:1000, Serotec, Cergy Saint-Christophe, France), anti-rat polymorphonuclear leukocytes (dilution 1:3000, Cedarlane, Ontario, Canada), anti-CD41 (integrin αIIb, platelets, dilution 1:50, Santa Cruz Biotechnologies) and anti-MMP-9 (dilution 1:50, Calbiochem, Darmstadt, Germany) as primary antibodies and a peroxidase Vector ABC kit for detection (Vector Labs, Burlingame, Calif., USA). Cells were counted with a grid in the microscope eyepiece and averaged in 4 symmetrical fields on the same slide. The size of the areas represented by thrombus, elastic fiber, AAA wall, and MMP-9- and CD41-positive staining were measured by morphometric analysis using Histolab software (Microvision Instruments, Evly, France). Thrombus areas were determined on Sirius red slides. The area occupied by positive staining was quantified by the color detecting mode of the computer program in the inner thrombus and outer wall.
(§2) Results are expressed as means±S.D. The percentage of diameter increase was calculated as follows: (diameter at harvest−diameter at grafting)×100/diameter at grafting. Comparisons between the two groups were made using the nonparametric Mann-Whitney U test (Statview, version 4.5). The frequency of aneurysms of large diameter in the different groups was analyzed by X^2 test. Simple regression analysis was used to test for correlations between various parameters. P<0.05 was considered significant.

[2] = test system: experimental aortic aneurysms (decellularized guinea-pig aorta xenograft in rat aorta); assay: AAA model: external aneurysmal diameter after xenograft implantation; type: in vivo
From the text: as §1, §2

[3] = Day 42, 10 mg/kg twice daily oral

Q: What does the source list for CCCSc1nc(N[C@@H]2C[C@H]2c2ccc(F)c(F)c2)c2nnn([C@@H]3C[C@H](OCCO)[C@@H](O)[C@H]3O)c2n1 (relative stereo) [Compound (A), {1S-[1α,2α,3β(1S*,2R*),5β]}-3-(7-{[2-(3,4-difluorophenyl)cyclopropyl]amino}-5-(propylthio)-3H-1,2,3-triazolo[4,5-d]pyrimidin-3-yl)-5-(2-hydroxyethoxyl)cyclopentane-1,2-diol]?
A: thrombus area/wall area ([1]; Day 10, 10 mg/kg twice daily oral): 0.07±0.05; thrombus area/wall area [1, 3]: 0.35±0.44; CD41-positive area (platelet marker) within the thrombus ([1]; Day 42, P=0.005 vs control): 0.13±0.16; MMP-9-positive area in the thrombus and the wall ([1]; Day 42, immunostaining): markedly reduced; slope (s) of correlation between thrombus area and aneurysm diameter ([1]; Day 42, intragroup analysis): 0.17; infiltration of PMNs into the mural thrombus ([1]; Days 10 and 42): significantly inhibited; infiltration of macrophages into the mural thrombus ([1]; Days 10 and 42): significantly inhibited; macrophage infiltration into the aneurysmal wall ([1]; Days 10 and 42): did not reach statistical significance; also recorded: no change; elastic fibers of the media (elastic lamellae area) ([1]; Days 10 and 42, orcein staining): significant preservation; SMC colonization of the wall ([1]; after 10 or 42 days): did not affect; density of SMCs within the thrombus ([1]; treatment for 10 days, α-actin staining): did not modify; SMC colonization of the thrombus ([1]; treatment for 42 days, α-actin staining): significantly improved; increase in aneurysmal diameter between Days 10 and 42 ([2]; 10 mg/kg twice daily oral): no increase in aneurysmal diameter was observed; percent increase in external diameter vs control [2, 3]: significantly reduced; incidence of larger aneurysms (diameter >4 mm) ([2]; Day 42, X^2=11.6, P<0.001): predominated in the control group; increase in external aneurysmal diameter ([2]; male Lewis rats, 10 mg/kg twice daily oral, 10 days, n=9): 197.3±52.8%; mean external aneurysmal diameter ([2]; male Lewis rats, 10 mg/kg twice daily oral, Day 10): 2.22±0.56 mm; mean external aneurysmal diameter ([2]; male Lewis rats, 10 mg/kg twice daily oral, Day 42, n=14): 3.61±1.46 mm
